According to US20030212123A1, “COX-2 selective carprofen for treating pain and inflammation in dogs” (Pfizer Inc., priority 1997, published 2003):
Where two headings read alike, the source gives them in different places.

Columns and labels:
Assay type in all cases: cell-based, dog
[1] = target: T1, canine COX-1 (Canis lupus familiaris, UniProt Q8HZR1); assay: Canine COX-1 activity: washed canine platelets, A23187-stimulated TXB2 by EIA; settings: results of repeated tests averaged
T1 construct: from tissue; host or cells: washed platelets from donor dog blood
T1 sequence (Q8HZR1 28-603): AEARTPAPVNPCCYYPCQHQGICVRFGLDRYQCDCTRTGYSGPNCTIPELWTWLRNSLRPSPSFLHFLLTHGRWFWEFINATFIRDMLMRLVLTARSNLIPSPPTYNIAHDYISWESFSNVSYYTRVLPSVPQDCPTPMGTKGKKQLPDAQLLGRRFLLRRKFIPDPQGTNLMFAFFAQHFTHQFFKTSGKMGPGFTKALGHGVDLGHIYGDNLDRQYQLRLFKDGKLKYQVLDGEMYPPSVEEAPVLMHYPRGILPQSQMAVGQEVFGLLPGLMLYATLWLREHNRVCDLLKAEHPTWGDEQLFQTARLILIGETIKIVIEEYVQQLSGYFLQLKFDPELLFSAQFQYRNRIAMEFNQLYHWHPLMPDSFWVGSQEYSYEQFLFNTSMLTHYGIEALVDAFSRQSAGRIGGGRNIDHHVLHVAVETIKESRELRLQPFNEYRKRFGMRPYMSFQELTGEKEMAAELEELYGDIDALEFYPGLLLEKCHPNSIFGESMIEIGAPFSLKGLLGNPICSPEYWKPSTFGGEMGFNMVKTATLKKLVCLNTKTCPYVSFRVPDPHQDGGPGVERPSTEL
Experimental: Protocol for Evaluation of Canine COX-1 Activity
Test drug compounds were solubilized and diluted the day before the assay was to be conducted with 0.1 mL of DMSO/9.9 mL of Hank's balanced salts solution (HBSS), and stored overnight at 4° C. On the day that the assay was carried out, citrated blood was drawn from a donor dog, centrifuged at 190×g for 25 min at room temperature, and the resulting platelet-rich plasma was then transferred to a new tube for further procedures. The platelets were washed by centrifuging at 1500×g for 10 min at room temperature. The platelets were washed with platelet buffer comprising Hank's buffer (Ca free) with 0.2% bovine serum albumin (BSA) and 20 mM HEPES. […] Then, 100 μl of canine washed platelets were added and the samples were incubated at 37° C. for 15 min, after which the reaction was stopped by adding 20 μl of 77 mM EDTA. The plates were then centrifuged at 2000×g for 10 min at […], after which 50 μl of supernatant was assayed for thromboxane B2 (TXB2) by enzyme-immunoassay (EIA).

[2] = target: T2, canine COX-2 (Canis lupus familiaris, UniProt Q8SPQ9); assay: Canine COX-2 activity: LPS-treated DH82 canine histocytoma cells, PGE2 by EIA
T2 construct: host or cells: DH82 canine histocytoma cells, LPS-treated overnight
T2 sequence (Q8SPQ9 18-604): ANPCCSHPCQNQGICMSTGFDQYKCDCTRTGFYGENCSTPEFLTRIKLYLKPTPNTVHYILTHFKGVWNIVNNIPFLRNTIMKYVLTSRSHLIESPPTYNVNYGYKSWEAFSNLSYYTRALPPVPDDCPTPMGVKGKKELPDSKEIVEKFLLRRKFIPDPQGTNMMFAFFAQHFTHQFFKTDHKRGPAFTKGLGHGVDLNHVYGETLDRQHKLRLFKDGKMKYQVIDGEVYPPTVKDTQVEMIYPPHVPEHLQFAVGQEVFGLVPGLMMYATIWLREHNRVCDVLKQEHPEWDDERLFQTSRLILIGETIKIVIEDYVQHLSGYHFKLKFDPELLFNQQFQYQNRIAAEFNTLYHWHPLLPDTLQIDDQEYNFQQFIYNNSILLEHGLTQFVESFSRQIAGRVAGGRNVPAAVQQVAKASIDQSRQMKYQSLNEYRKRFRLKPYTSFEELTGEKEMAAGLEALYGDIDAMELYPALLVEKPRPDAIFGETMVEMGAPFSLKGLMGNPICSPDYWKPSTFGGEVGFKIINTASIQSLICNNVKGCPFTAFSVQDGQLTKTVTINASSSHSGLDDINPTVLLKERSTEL
Experimental: (§1) Protocol for Evaluation of Canine COX-2 Activity
(§2) A canine histocytoma (macrophage-like) cell line from the American Type Culture Collection designated as DH82, was used in setting up the protocol for evaluating the COX-2 inhibition activity of various test drug compounds. There was added to flasks of these cells 10 μg/mL of LPS, after which the flask cultures were incubated overnight. The same test drug compound dilutions as described above for the COX-1 protocol were used for the COX-2 assay and were prepared the day before the assay was carried out. […] The test sample suspensions were incubated for 1 hr and then centrifuged at 1000 rpm for 10 min at 4° C., after which 50 μl aliquots of each test drug sample were delivered to EIA plates. The EIA was performed for prostaglandin E2 (PGE2), and the pg/mL concentration of PGE2 was calculated from the standard line included on each plate. […] The results were averaged, and a single COX-1:COX-2 ratio was calculated.

[3] = test system: canine COX-2; assay: as above
Experimental: as §1, §2

[4] = DH82 cells, PGE2, results of repeated tests averaged, read-out: COX-2 IC50
[5] = ratio of canine COX-1 IC50 to COX-2 IC50, higher = more COX-2 selective

| Structure (SMILES) | IC50 [1] [nM] | IC50 [2, 4] [nM] | COX-1/COX-2 Ratio [3, 5] | IC50 [2] [nM] | COX-1/COX-2 Ratio [3] |
| --- | --- | --- | --- | --- | --- |
| COc1ccc2cc(CC(=O)O)ccc2c1 [6-MNA, 6-methoxy-2-naphthyl-acetic acid] | 28300 | 4210 | 6.72 | – | – |
| C=CCOc1ccc(CC(=O)O)cc1Cl [Alclofenac, 3-chloro-4-(2-propenyloxy)-benzene acetic acid] | 13200 | 7410 | 1.78 | – | – |
| CC(=O)Oc1ccccc1C(=O)O [Aspirin, 2-(acetyloxy)-benzoic acid] | 34300 | – | <0.343 | > 100000 | – |
| C[C@@H](C(=O)O)c1ccc2c(c1)[nH]c1ccc(Cl)cc12 [Carprofen (R-)] | > 25000 | – | – | 5970 | – |
| C[C@H](C(=O)O)c1ccc2c(c1)[nH]c1ccc(Cl)cc12 [Carprofen (S-), (S)-6-chloro-α-methyl-carbazole-2-acetic acid] | 6710 | – | – | 37.1 | – |
| CCc1cccc2c3c([nH]c12)C(CC)(CC(=O)O)OCC3 (stereo not shown) [Etodolac, 1,8-diethyl-1,3,4,9-tetrahydro-pyrano[3,4-b]indole-1-acetic acid] | 1330 | – | – | 2570 | 0.517 |
| O=C(O)Cc1ccc(-c2ccccc2)cc1 [Felbinac, [1,1′-biphenyl]-4-acetic acid] | 2540 | 362 | 7.01 | – | – |
| O=C(O)c1ccccc1Nc1cccc(C(F)(F)F)c1 [Flufenamic acid, 2-{[3-(trifluoromethyl)phenyl]amino}-benzoic acid] | 2310 | 47.5 | 48.6 | – | – |
| Cc1c(Nc2ncccc2C(=O)O)cccc1C(F)(F)F [Flunixin, 2-{[2-methyl-3-(trifluoromethyl)-phenyl]amino}-3-pyridinecarboxylic acid; compounded with 1-deoxy-1-(methylamino)-D-glucitol(1:1)] | 7.68 | 12.1 | 0.635 | – | – |
| CC(C(=O)O)c1ccc(-c2ccccc2)c(F)c1 (stereo not drawn) [Flurbiprofen, 2-fluoro-α-methyl-[1,1′-biphenyl]-4-acetic acid] | 505 | – | – | – | – |
| NC(=O)N1C(=O)C(C(=O)c2cccs2)c2cc(F)c(Cl)cc21 (stereo not shown) [Ilonidap, 6-chloro-5-fluoro-2,3-dihydro-(hydroxy-2-thienylmethylene)-2-oxo-1H-indole-1-carboxamide] | 472 | 270 | 1.75 | – | – |
| CC(C(=O)O)c1cccc(C(=O)c2ccccc2)c1 (stereo not drawn) [Ketoprofen, 3-benzoyl-α-methyl-benzeneacetic acid] | – | – | – | 123 | – |
| Cc1ccc(Cl)c(Nc2ccccc2C(=O)O)c1Cl [Meclofenamic acid, 2-[(2,6-dichloro-3-methylphenyl)amino]-benzoic acid] | 737 | 47.8 | 15.4 | – | – |
| Cc1cccc(Nc2ccccc2C(=O)O)c1C [Mefenamic acid, 2-[(2,3-dimethylphenyl)amino]-benzoic acid] | 403 | – | 11.1 | 36.2 | – |
| Cc1cnc(NC(=O)C2=C(O)c3ccccc3S(=O)(=O)N2C)s1 [Meloxicam, 4-hydroxy-2-methyl-N-(5-methyl-2-thiazolyl)-2H-1,2-benzothiazine-3-carboxamide] | 891 | – | – | – | – |
| CS(=O)(=O)Nc1ccc([N+](=O)[O-])cc1OC1CCCCC1 [NS-398, N-[2-(cyclohexyloxy)-4-nitrophenyl]-methanesulfonamide] | 587 | – | – | – | – |
| COc1ccc2cc(C(C)C(=O)O)ccc2c1 (stereo not drawn) [Naproxen, 6-methoxy-α-methyl-2-naphthaleneacetic acid] | – | – | – | 626 | – |
| O=C(O)c1cccnc1Nc1cccc(C(F)(F)F)c1 [Niflumic acid, 2-[3-(trifluoromethyl)anilino]nicotinic acid] | 1030 | 46.4 | 22.2 | – | – |
| CS(=O)(=O)Nc1ccc([N+](=O)[O-])cc1Oc1ccccc1 [Nimesulide, 4′-nitro-2′-phenoxymethanesulfonanilide] | – | – | – | 56.5 | – |
| CCCCC1C(=O)N(c2ccccc2)N(c2ccccc2)C1=O [Phenylbutazone, 4-butyl-1,2-diphenyl-3,5pyrazolidinedione] | – | 3790 | – | – | – |
| CN1C(C(=O)Nc2ccccn2)=C(O)c2ccccc2S1(=O)=O [Piroxicam, 4-hydroxyy-2-methyl-N-2-pyridinyl-2H-1,2-benzothiazine-3-carboxamide-1,1-dioxide] | 223 | – | – | – | – |
| NC(=O)N1C(=O)C(C(=O)c2cccs2)c2cc(Cl)ccc21 (stereo not shown) [Tenidap, 5-chloro-2,3-dihydro-3-(hydroxy-2-thienylmethylene)-2-oxo-1H-indole-1-carboxamide] | 469 | – | – | – | – |
| Cc1c(Cl)cccc1Nc1ccccc1C(=O)O [Tolfenamic acid, N-(3-chloro-o-tolyl)-anthranilic acid] | 206 | 13.7 | 15.0 | – | – |
